Measurements taken from US20240199625A1, “BICYCLIC HETEROCYCLIC FGFR4 INHIBITOR, PHARMACEUTICAL COMPOSITION AND PREPARATION COMPRISING SAME, AND APPLICATION THEREOF” (Hangzhou Apeloa Medicine Research Institute Co., Ltd., priority 2021, published 2024).
Read-outs that look alike come from different tables or passages of the source.

Legend:
tyrosine kinase FGFR1 = tyrosine kinase FGFR1 (Homo sapiens (Human), UniProt P11362); test: In vitro kinase test (HTRF), FGFR1; format: biochemical; details: 60 min preincubation, 30 min reaction at 37° C.
Protocol: (§1) The effect of compounds of the present invention on tyrosine kinase FGFR1 and FGFR4 activity is evaluated by an in vitro kinase test. The method used in the test was homogeneous time-resolved fluorescence (HTRF).
(§2) Compound preparation: Add 45 μL of DMSO to 5 μL of stock solution at a concentration of 10 mM to prepare the solution LY2874455 at 1000 µM; then add 12 μL of the compound at 1000 μM to 88 µL of DMSO to prepare the solution LY2874455 at 120 μM as the starting concentration; add 48 μL of DMSO to 2 μL of stock solution at a concentration of 10 mM to prepare the solution BLU554 at 400 μM as the starting concentration; add 15 μL of DMSO to 10 μL of sample compound stock solution at a concentration of 10 mM to prepare a sample compound solution at 4 mM as the starting concentration; transfer the compound solution to the target plate with the dispenser Echo.
(§3) Kinase reaction: Add 5 μL of kinase solution to each well, incubate the compound and kinase at room temperature for 60 min, add 5 μL of substrate and ATP mixture to start reacting at 37° C. for a certain period of time (30 min for FGFR1 kinase test, and 40 min for FGFR4 kinase test), and then add 10 μL of X1665 and antibody detection reagent mixture to stop; after 60 min of incubation at room temperature, read the TR-FRET signal with microplate reader SPARK 10M at the transmit wavelength of 665 nm/612 nM. Test enzyme activity at 10 concentrations for each compound, and calculate the IC50 value of the compound with the data with the analysis software, as shown in Table 1.

tyrosine kinase FGFR4 = tyrosine kinase FGFR4 (Homo sapiens (Human), UniProt P22455); test: In vitro kinase test (HTRF), FGFR4; format: biochemical; details: for IC50: HTRF, 60 min preincubation, 40 min reaction at 37° C.; for FGFR1 IC50 / FGFR4 IC50 ratio (FGFR4 selectivity): ratio of the FGFR1 and FGFR4 IC50 values
Protocol: as §1, §2, §3

[1] = test system: human hepatoma cells Hep3B; test: Cell proliferation test (CELL TITER-GLO); format: cell-based; details: 3 days incubation, CTG, read-out: IC50 Value of Compound for Hep3B Cells
Protocol: The effect of the compounds of the present invention on the proliferation of human hepatoma cells Hep3B is evaluated by an in vitro cell test. The method used in the test was CELL TITER-GLO (CTG).
Cell plating: Take Hep3B cells in the logarithmic growth phase, digest, centrifuge at 1,000 rpm for 5 min at room temperature and collect, resuspend with EMEM medium of 10% FBS and count, and inoculate into a 384-well microplate (#3765) at a density of 800 cells/well, 20 μL in each.
Compound preparation: Dissolve the compound in DMSO to prepare a stock solution at a concentration of 10 mM, dilute the sample compound stock solution to 2 mM with DMSO (6 μL of the stock solution plus 24 μL of DMSO) as the starting concentration, and dilute the control compound stock solution to 200 μM with DMSO (2 μL of the stock solution plus 98 μL of DMSO) as the starting concentration; dilute the compound 9 times with DMSO in gradient by 3 folds, and then dilute the compound to 40 times the final concentration dose with cell culture medium (2 μL of the compound plus 78 μL of […]).
Cell dosing: Add 5 μL (5×) of the compound to the corresponding wells, make sure the final concentrations of sample compounds are respectively 10000 nM, 3333 nM, 1111 nM, 370.37 nM, 123.46 nM, 41.15 nM, 13.72 nM, 4.57 nM, 1.52 nM, 0.50 nM, take 0.5% DMSO as the negative control, and incubate the microplate at 37° C. in 5% C02 for 3 days.
CTG detection: After 3 days of incubation, add 5 μL of Cell Titer-Glo® reagent per well, incubate on a shaker at 300 rpm for 60 min protected from light at room temperature, read the luminescence signals with microplate reader Spark 10M, and calculate the semi-inhibitory concentration of the compound on cell proliferation, that is, the IC50 value, with the analysis software, as shown in Table 2.

Chain of tyrosine kinase FGFR4 (P22455 22-802): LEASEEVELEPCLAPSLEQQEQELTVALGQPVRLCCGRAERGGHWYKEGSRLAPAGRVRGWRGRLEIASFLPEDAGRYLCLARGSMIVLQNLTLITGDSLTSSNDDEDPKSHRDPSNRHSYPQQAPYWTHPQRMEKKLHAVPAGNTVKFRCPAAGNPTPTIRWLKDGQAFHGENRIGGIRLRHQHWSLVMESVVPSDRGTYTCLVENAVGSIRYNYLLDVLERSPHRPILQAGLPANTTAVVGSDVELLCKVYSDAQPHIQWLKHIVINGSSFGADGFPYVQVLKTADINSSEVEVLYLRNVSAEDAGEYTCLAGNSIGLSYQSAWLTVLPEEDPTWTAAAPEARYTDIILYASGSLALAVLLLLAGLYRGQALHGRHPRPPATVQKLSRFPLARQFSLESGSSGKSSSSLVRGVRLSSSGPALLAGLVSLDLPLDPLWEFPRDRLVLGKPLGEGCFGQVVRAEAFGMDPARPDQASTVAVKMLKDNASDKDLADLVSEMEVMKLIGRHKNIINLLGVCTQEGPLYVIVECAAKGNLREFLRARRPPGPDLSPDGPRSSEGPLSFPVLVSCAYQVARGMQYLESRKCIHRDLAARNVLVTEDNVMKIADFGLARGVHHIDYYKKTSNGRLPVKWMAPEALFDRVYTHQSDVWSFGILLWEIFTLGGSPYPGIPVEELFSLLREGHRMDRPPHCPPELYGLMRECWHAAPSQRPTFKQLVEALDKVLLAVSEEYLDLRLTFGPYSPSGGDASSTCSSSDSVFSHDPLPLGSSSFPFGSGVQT
Chain of tyrosine kinase FGFR1 (P11362 22-822): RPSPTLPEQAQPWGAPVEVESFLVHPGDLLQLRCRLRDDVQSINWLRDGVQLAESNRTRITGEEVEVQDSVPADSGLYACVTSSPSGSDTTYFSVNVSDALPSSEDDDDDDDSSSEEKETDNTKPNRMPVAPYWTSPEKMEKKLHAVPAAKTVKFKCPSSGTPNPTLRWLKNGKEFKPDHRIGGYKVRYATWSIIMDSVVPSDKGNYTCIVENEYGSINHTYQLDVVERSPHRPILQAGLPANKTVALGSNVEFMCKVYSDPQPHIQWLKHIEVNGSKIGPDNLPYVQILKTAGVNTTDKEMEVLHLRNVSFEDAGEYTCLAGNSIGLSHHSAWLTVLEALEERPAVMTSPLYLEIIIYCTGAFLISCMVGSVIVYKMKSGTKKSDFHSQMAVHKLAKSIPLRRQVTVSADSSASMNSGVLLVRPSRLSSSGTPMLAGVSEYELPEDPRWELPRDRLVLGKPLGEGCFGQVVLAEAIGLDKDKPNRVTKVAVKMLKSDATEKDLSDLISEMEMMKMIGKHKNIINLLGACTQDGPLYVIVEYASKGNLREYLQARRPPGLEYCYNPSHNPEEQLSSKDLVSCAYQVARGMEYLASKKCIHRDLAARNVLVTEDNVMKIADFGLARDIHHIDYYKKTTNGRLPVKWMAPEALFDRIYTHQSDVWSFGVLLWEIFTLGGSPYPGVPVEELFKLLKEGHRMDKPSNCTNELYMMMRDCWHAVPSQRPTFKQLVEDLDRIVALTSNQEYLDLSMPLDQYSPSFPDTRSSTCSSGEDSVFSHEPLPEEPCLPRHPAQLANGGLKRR

Compound | IC50 (tyrosine kinase FGFR1) [nM] | IC50 (tyrosine kinase FGFR4) [nM] | FGFR1 IC50 / FGFR4 IC50 ratio (FGFR4 selectivity) (tyrosine kinase FGFR4) | IC50 ([1]; Homo sapiens, Hep3B, 72 h) [nM] | IC50 [1] [nM]
C=CC(=O)Nc1ccccc1Nc1cc2c(cn1)CN(c1c(F)c(OC)nc(OC)c1F)C(=O)C21CC1 [Compound 7, N-(2-((2′-(3,5-difluoro-2,6-dimethoxypyridine-4-yl)-3′-oxo-2′,3′-dihydro-1′H-spiro[cyclopropane-1,4′-[2,7]naphthol]-6′-yl)amino)phenyl)acrylamide] | 4240 | 5.42 | 782 | – | –
C=CC(=O)NCc1cc2c(cn1)CN(c1c(F)c(OC)nc(OC)c1F)C(=O)C21CC1 [Compound 1, N-((2′-(3,5-difluoro-2,6-dimethoxypyridine-4-yl)-3′-oxo-2′,3′-dihydro-1′H-spiro[cyclopropane-1,4′-[2,7]naphthine]-6′-yl)methyl) acrylamide] | 3660 | 8.57 | 426 | – | 52.6
C=CC(=O)Nc1cc(N2CCOCC2C)ccc1Nc1cc2c(cn1)CN(c1c(F)c(OC)nc(OC)c1F)C(=O)C21CC1 (centres unmarked) [Compound 15, N-(2-((2′-(3,5-difluoro-2,6-dimethoxypyridine-4-yl)-3′-oxo-2′,3′-dihydro-1′H-spiro[cyclopropane-1,4′-[2,7]naphthyridine]-6′-yl)-amino)-5-(3-methomorpholinyl)phenyl)acrylamide] | 2280 | 0.63 | 3617 | – | 15.3

Now from value to molecule, other results behind:

IC50 (tyrosine kinase FGFR1) [nM] | IC50 (tyrosine kinase FGFR4) [nM] | FGFR1 IC50 / FGFR4 IC50 ratio (FGFR4 selectivity) (tyrosine kinase FGFR4) | IC50 ([1]; Homo sapiens, Hep3B, 72 h) [nM] | Compound | IC50 [1] [nM]
6 | 0.3 | 20 | – | C=CC(=O)Nc1cc(N2CCC(N3CCOCC3)CC2)ccc1Nc1cc2c(cn1)CN(c1c(F)c(OC)nc(OC)c1F)C(=O)C21CC1 [Compound 5, N-(2-((2′-(3,5-difluoro-2,6-dimethoxypyridine-4-yl)-3′-oxo-2′,3′-dihydro-1′H-spiro[cyclopropane-1,4′-[2,7]naphthyridine]-6′-yl)-amino)-5-(4-morpholinopiperidin-1-yl)phenyl)acrylamide] | –
984 | 0.67 | 1468 | 14 | C=CC(=O)Nc1cc(N2CCOCC2)ccc1Nc1cc2c(cn1)CN(c1c(F)c(OC)nc(OC)c1F)C(=O)C21CC1 [Compound 10, N-(2-((2′-(3,5-difluoro-2,6-dimethoxypyridine-4-yl)-3′-oxo-2′,3′-dihydro-1′H-spiro[cyclopropane-1,4′-[2,7]naphthyridine]-6′-yl)-amino)-5-morpholinophenyl) acrylamide] | –
> 9930 | 2.6 | 3817 | 38.1 | C=CC(=O)Nc1cc(N2CCOCC2)c(F)cc1Nc1cc2c(cn1)CN(c1c(F)c(OC)nc(OC)c1F)C(=O)C21CC1 [Compound 14, N-(2-((2′-(3,5-difluoro-2,6-dimethoxypyridine-4-yl)-3′-oxo-2′,3′-dihydro-1′H-spiro[cyclopropane-1,4′-[2,7]naphthyridine]-6′-yl)-amino)-4-fluoro-5-morpholinophenyl)acrylamide] | –
8570 | 2.7 | 3172 | 56.5 | C=CC(=O)Nc1cccc(C)c1Nc1cc2c(cn1)CN(c1c(F)c(OC)nc(OC)c1F)C(=O)C21CC1 [Compound 8, N-(2-((2′-(3,5-difluoro-2,6-dimethoxypyridine-4-yl)-3′-oxo-2′,3′-dihydro-1′H-spiro[cyclopropane-1,4′-[2,7]naphthyridine]-6′-yl)amino)-3-methylphenyl)acrylamide] | –
624 | 5.98 | – | 38.4 | C=CC(=O)N[C@H]1CCOC[C@H]1Nc1ncc2cc(-c3c(Cl)c(OC)cc(OC)c3Cl)ccc2n1 [BLU554, reference compound] | –
